Data from patent US10973832B2, “Muscarinic M1 receptor agonists” (Heptares Therapeutics Limited, priority 2011, dated 2021).

Columns and labels:
Type in all cases: cell-based
[1] = target: T1, human muscarinic M4 receptor (Homo sapiens, UniProt P08173); experiment: Phospho-ERK1/2 assay, muscarinic M4; conditions: for EC50: phospho-ERK1/2 Alphascreen, read-out: pEC50 M4 (converted); for Emax: CHO, read-out: % Emax cf. ACh (M4)
T1 construct: expressed in transfected cells
T1 sequence (P08173 1-479): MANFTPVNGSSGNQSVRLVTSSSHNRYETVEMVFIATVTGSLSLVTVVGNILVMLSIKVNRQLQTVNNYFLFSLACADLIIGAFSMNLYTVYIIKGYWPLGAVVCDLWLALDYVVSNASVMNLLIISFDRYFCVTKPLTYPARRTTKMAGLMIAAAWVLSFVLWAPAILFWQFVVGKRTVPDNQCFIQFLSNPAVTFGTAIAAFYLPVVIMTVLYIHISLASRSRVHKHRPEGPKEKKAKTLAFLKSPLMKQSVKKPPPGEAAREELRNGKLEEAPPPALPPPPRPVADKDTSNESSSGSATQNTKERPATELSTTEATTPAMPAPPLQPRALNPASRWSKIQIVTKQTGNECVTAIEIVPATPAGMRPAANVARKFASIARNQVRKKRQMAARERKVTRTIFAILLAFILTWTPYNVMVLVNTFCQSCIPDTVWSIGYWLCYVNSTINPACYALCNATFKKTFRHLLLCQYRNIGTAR
Description: (§1) Functional assays were performed using the Alphascreen Surefire phospho-ERK1/2 assay (Crouch & Osmond, Comb. Chem. High Throughput Screen, 2008). ERK1/2 phosphorylation is a downstream consequence of both Gq/11 and Gi/o protein coupled receptor activation, making it highly suitable for the assessment of M1, M3 (Gq/11 coupled) and M2, M4 receptors (Gi/o coupled), rather than using different assay formats for different receptor subtypes. CHO cells stably expressing the human muscarinic M1, M2, M3 or M4 receptor were plated (25K/well) onto 96-well tissue culture plates in MEM-alpha+10% dialysed FBS. Once adhered, cells were serum-starved overnight. Agonist stimulation was performed by the addition of 5 μL agonist to the cells for 5 min (37° C.). Media was removed and 50 μL of lysis buffer added. After 15 min, a 4 μL sample was transferred to 384-well plate and 7 μL of detection mixture added. Plates were incubated for 2 h with gentle agitation in the dark and then read on a PHERAstar plate reader.
(§2) pEC50 and Emax figures were calculated from the resulting data for each receptor subtype.

[2] = target: T2, human muscarinic M3 receptor (Homo sapiens, UniProt P20309); experiment: Phospho-ERK1/2 assay, muscarinic M3; conditions: for EC50: phospho-ERK1/2 Alphascreen, read-out: pEC50 M3 (converted); for Emax: CHO, read-out: % Emax cf. ACh (M3)
T2 construct: expressed in transfected cells
Description: as §1, §2

[3] = target: T3, human muscarinic M2 receptor (Homo sapiens, UniProt P08172); experiment: Phospho-ERK1/2 assay, muscarinic M2; conditions: for EC50: CHO cells expressing human M2, phospho-ERK1/2 Alphascreen, read-out: pEC50 M2 (converted); for Emax: CHO, read-out: % Emax cf. ACh (M2)
T3 sequence (P08172 1-466): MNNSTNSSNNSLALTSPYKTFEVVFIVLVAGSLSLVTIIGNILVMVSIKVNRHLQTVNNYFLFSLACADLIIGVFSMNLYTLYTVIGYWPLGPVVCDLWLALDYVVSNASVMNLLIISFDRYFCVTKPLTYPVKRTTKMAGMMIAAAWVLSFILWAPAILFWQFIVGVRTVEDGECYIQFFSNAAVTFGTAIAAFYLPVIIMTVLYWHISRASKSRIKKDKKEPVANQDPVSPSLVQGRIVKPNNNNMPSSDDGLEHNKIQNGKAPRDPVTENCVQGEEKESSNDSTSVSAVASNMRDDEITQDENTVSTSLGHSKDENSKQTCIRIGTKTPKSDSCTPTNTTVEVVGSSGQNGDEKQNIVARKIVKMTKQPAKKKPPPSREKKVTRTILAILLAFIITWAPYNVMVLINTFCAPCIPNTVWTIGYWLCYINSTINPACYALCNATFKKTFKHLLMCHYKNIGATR
Description: as §1, §2

[4] = target: T4, human muscarinic M1 receptor (Homo sapiens, UniProt P11229); experiment: Phospho-ERK1/2 assay, muscarinic M1; conditions: for EC50: CHO cells expressing human M1, phospho-ERK1/2 Alphascreen, read-out: pEC50 M1 (converted); for Emax: CHO, read-out: % Emax cf. ACh (M1)
T4 sequence (P11229 1-460): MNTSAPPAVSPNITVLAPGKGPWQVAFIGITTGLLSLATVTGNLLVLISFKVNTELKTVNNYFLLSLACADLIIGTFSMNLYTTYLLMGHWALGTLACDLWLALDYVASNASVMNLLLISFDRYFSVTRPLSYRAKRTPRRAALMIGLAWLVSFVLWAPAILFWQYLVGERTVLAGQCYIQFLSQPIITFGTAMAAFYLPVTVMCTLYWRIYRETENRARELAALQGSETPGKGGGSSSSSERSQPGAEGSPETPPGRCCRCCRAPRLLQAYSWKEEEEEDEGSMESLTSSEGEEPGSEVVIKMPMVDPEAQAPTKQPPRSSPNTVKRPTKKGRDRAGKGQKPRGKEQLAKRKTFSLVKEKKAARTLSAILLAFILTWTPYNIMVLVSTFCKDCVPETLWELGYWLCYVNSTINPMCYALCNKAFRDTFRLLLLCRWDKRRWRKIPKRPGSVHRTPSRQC
Description: as §1, §2

T2 sequence (P20309 whole entry): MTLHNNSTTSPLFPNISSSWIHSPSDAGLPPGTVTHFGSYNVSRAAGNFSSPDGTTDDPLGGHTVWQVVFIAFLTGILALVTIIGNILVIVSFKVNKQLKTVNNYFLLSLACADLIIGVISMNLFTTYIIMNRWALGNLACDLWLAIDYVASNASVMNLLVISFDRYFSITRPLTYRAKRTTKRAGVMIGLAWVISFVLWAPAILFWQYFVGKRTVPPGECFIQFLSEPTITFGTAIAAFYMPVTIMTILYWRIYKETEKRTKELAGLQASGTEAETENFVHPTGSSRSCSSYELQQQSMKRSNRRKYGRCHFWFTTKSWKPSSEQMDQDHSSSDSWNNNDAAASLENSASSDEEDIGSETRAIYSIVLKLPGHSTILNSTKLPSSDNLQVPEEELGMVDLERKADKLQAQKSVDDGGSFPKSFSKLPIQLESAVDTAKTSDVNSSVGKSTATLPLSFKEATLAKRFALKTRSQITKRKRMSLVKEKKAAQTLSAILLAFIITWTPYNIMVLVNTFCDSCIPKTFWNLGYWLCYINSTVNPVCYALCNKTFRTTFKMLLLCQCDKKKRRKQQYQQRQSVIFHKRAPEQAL

Row | Compound | EC50 ([1]; CHO cells expressing human M4) | Emax [1] | EC50 ([2]; CHO cells expressing human M3) | Emax [2] | EC50 [3] | Emax [3] | EC50 [4] | Emax [4] | % Emax cf. ACh (M4) ([1]; CHO cells expressing human M4, Emax relative to ACh) | % Emax cf. ACh (M3) ([2]; CHO cells expressing human M3, Emax relative to ACh)
1 | CCOC(=O)N1CCCC(N2CCC(F)(C(=O)NCC3CC3)CC2)CC1 (stereo not drawn) [Example 52, ethyl 4-(4-fluoro-4-((cyclopropylmethyl)carbamoyl)piperidin-1-yl)azepane-1-carboxylate] | 501 nM | 84% | > 20000 nM | 5% | > 20000 nM | 9% | 229 nM | 95% |  | 
2 | CCOC(=O)N1CCCC(N2CCC(C(=O)NC(C)(C)C(C)C)CC2)CC1 (stereo not drawn) [Example 31, ethyl 4-(4-((2,3-dimethylbutan-2-yl)carbamoyl)piperidin-1-yl)azepane-1-carboxylate] | 123 nM | 90% | > 20000 nM | 13% | > 20000 nM | 0% | 31.6 nM | 122% |  | 
3 | CCOC(=O)N1CCCC(N2CCC(C(=O)NC3(C)CCCCC3)CC2)CC1 (stereo not drawn) [Example 17, ethyl 4-(4-((1-methylcyclohexyl)carbamoyl)piperidin-1-yl)azepane-1-carboxylate] | 724 nM | 46% | > 20000 nM | 5% | > 20000 nM | 0% | 61.7 nM | 104% |  | 
4 | CCOC(=O)N1CCCC(N2CCC(C(=O)NCC(C)C3CC3)CC2)CC1 (stereo not drawn) [Example 39, ethyl 4-(4-((2-cyclopropylpropyl)carbamoyl)piperidin-1-yl)azepane-1-carboxylate] | > 20000 nM | 13% | > 20000 nM | 8% | > 20000 nM | 2% | 72.4 nM | 96% |  | 
5 | CCOC(=O)N1CCCC(N2CCC(C(=O)NCC(C)CC)CC2)CC1 (stereo not drawn) [Example 8, ethyl 4-(4-((2-methylbutyl)carbamoyl)piperidin-1-yl)azepane-1-carboxylate] | 1660 nM | 55% | > 20000 nM | 2% | > 20000 nM | 3% | 151 nM | 93% |  | 
6 | CCOC(=O)N1CCCC(N2CCC(C#N)(C(=O)NC3(C)CCC3)CC2)CC1 (stereo not drawn) [Example 82, ethyl 4-{4-cyano-4-[(1-methylcyclobutyl)carbamoyl]piperidin-1-yl}azepane-1-carboxylate] | 1620 nM | 81% | > 20000 nM | 2% | > 20000 nM | 16% | 55 nM | 89% |  | 
7 | CCOC(=O)N1CCC[C@@H](N2CCC(C(=O)NC3(C)CCC3)CC2)CC1 [Example 66, ethyl (4R)-4-{4-[(1-methylcyclobutyl)carbamoyl]piperidin-1-yl}azepane-1-carboxylate] | 2450 nM | 66% | > 20000 nM | 0% | > 20000 nM | 12% | 275 nM | 94% |  | 
8 | CCOC(=O)N1CCCC(N2CCC(C(=O)NC(C)(C)C)CC2)CC1 (stereo not drawn) [Example 7, ethyl 4-(4-((1,1-dimethylethyl)carbamoyl)piperidin-1-yl)azepane-1-carboxylate] | 191 nM | 80% | > 20000 nM | 14% | > 20000 nM | 2% | 81.3 nM | 111% |  | 
9 | CCOC(=O)N1CCCC(N2CCC(OC)(C(=O)NC3(C)CCC3)CC2)CC1 (stereo not drawn) [Example 79, ethyl 4-{4-methoxy-4-[(1-methylcyclobutyl)carbamoyl]piperidin-1-yl}azepane-1-carboxylate] | 871 nM | 27% | > 20000 nM | 27% | > 20000 nM | 7% | 97.7 nM | 113% |  | 
10 | CCOC(=O)N1CCCC(N2CCC(F)(C(=O)NC3CCC3)CC2)CC1 (stereo not drawn) [Example 55, ethyl 4-(4-fluoro-4-((cyclobutyl)carbamoyl)piperidin-1-yl)azepane-1-carboxylate] | 1350 nM | 69% | > 20000 nM | 0% | > 20000 nM | 17% | 186 nM | 75% |  | 
11 | CCOC(=O)N1CCCC(N2CCC(F)(C(=O)NC(C)(C)CC)CC2)CC1 (stereo not drawn) [Example 41, ethyl 4-(4-fluoro-4-((1,1-dimethylpropyl)carbamoyl)piperidin-1-yl)azepane-1-carboxylate] | 257 nM | 88% | > 20000 nM | 12% | > 20000 nM | 41% | 39.8 nM | 97% |  | 
12 | CCOC(=O)N1CCCC(N2CCC(OC)(C(=O)NCC3(C)CCC3)CC2)CC1 (stereo not drawn) [Example 81, ethyl 4-(4-methoxy-4-{[(1-methylcyclobutyl)methyl]carbamoyl}piperidin-1-yl)azepane-1-carboxylate] | > 20000 nM | 9% | > 20000 nM | 7% | > 20000 nM | 0% | 141 nM | 110% |  | 
13 | CCOC(=O)N1CCC[C@@H](N2CCC(C(=O)NCC(C)C)CC2)CC1 [Example 64] | 3240 nM | 81% | > 20000 nM | 9% | > 20000 nM | 5% | 107 nM | 104% |  | 
14 | CCOC(=O)N1CCCC(N2CCC(F)(C(=O)NC3(C)CCC3)CC2)CC1 (stereo not drawn) [Example 50, ethyl 4-(4-fluoro-4-((1-methylcyclobutyl)carbamoyl)piperidin-1-yl)azepane-1-carboxylate] | 603 nM | 90% | > 20000 nM | 2% | > 20000 nM | 17% | 19.5 nM | 102% |  | 
15 | CCOC(=O)N1CCCC(N2CCC(F)(C(=O)NC(C)(C)C(C)C)CC2)CC1 (stereo not drawn) [Example 44, ethyl 4-(4-fluoro-4-((2,3-dimethylbutan-2-yl)carbamoyl)piperidin-1-yl)azepane-1-carboxylate] | 417 nM | 113% | > 20000 nM | 5% | > 20000 nM | 19% | 31.6 nM | 104% |  | 
16 | CC(=O)OCC[N+](C)(C)C [ACh] |  |  |  |  |  |  |  |  | (110) % | (112) %
17 | CCOC(=O)N1CCC[C@@H](N2CCC(C(=O)NC(C)(C)C)CC2)CC1 [Example 68, ethyl (4R)-4-[4-(tert-butylcarbamoyl)piperidin-1-yl]azepane-1-carboxylate] | 3720 nM | 64% |  |  |  |  | 813 nM | 94% |  | 
